This experiment relates to human breast milk-fed infants. The experiment can be described thus: Regression association of breast milk HMO levels with IBQ-R negative affectivity in infants. The experiment is classed as in vivo. As for the experimental part:
In some embodiments, social-emotional skills are determined by an Infant Behavior Questionnaire (IBQ), such as the IBQ-Revised (IBQ-R). The “IBQ-R (revised Infant Behavior Questionnaire) questionnaire” is a widely used parent-report measure for assessing dimensions of temperament along 14 scales, as reported below, in infants between 3 and 12 months of age (see e.g. Gartstein, M. A. and Rothbart, M. K., 2003. Infant behavior and development, 26(1), pp. 64-86).
The subject's negative affectivity can be determined by any suitable method. In some embodiments, the subject's negative affectivity is determined by an Infant Behavior Questionnaire (IBQ), for example the IBQ-Revised (IBQ-R). For example, negative affectivity may be a domain constructed out of the following scales on the IBQ-R: sadness, fear, distress to limitations, activity level, and falling reactivity. The one or more HMOs according to the present invention may reduce sadness, fear, and/or distress to limitations. The one or more HMOs according to the present invention may improve activity level and/or rate of recovery from distress.
A total of 195 infants were tested. Breastmilk HMO levels were tested in breastmilk collected at two months and three months. Infant behaviours were assessed with an Infant Behaviour Questionnaire-Revised (IBQ-R). […]

Lacto-N-difucohexaose I [LNDFHI]: the IBQR result (breast milk collected at 2 months, negative affectivity of infants at 9 months, N=195) is “Reduced”. The “association with negative emotions in infants” value (infants at 9 months, breast milk HMO levels) was “associated with reduction in negative emotions”.

(Values after US20260232710A1, “AGENTS, COMPOSITIONS, AND METHODS FOR SUPPORTING BEHAVIOURAL DEVELOPMENT” (SOCIÉTÉ DES PRODUITS NESTLÉ S.A., priority 2023, published 2026).)
